Assay results published in the supplement of paper PMC10307832.

How the values were obtained:
Test in all cases: relative viability (nuclei count vs DMSO), 5 days (fraction); higher = more cells survive
Neratinib + Trametinib = compound: CCOc1cc2ncc(C#N)c(Nc3ccc(OCc4ccccn4)c(Cl)c3)c2cc1NC(=O)/C=C/CN(C)C [Neratinib] + CC(=O)Nc1cccc(-n2c(=O)n(C3CC3)c(=O)c3c(Nc4ccc(I)cc4F)n(C)c(=O)c(C)c32)c1 [Trametinib] (partner 0.02 µM)
Procedure, shortened: (§1)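 Values are medians from duplicate plates. Each reflects relative viability, defined as the nuclei count of treated wells over that of vehicle wells. Lung cancer cell lines in 1536-well plates were pin-tool dosed one day after seeding with one drug alone or with a fixed anchor-drug dose plus five library-drug doses (not always all listed) in √10 steps, then fixed, stained and imaged at 4× after 5 days.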

Neratinib + Olaparib = compound: CCOc1cc2ncc(C#N)c(Nc3ccc(OCc4ccccn4)c(Cl)c3)c2cc1NC(=O)/C=C/CN(C)C [Neratinib] + O=C(c1cc(Cc2n[nH]c(=O)c3ccccc23)ccc1F)N1CCN(C(=O)C2CC2)CC1 [Olaparib] (partner 8 µM)
Procedure, shortened: as §1

Neratinib + Bortezomib = compound: CCOc1cc2ncc(C#N)c(Nc3ccc(OCc4ccccn4)c(Cl)c3)c2cc1NC(=O)/C=C/CN(C)C [Neratinib] + CC(C)C[C@H](NC(=O)[C@H](Cc1ccccc1)NC(=O)c1cnccn1)B(O)O [Bortezomib] (partner 0.002 µM)
Procedure, shortened: as §1

Neratinib + Pictilisib = compound: CCOc1cc2ncc(C#N)c(Nc3ccc(OCc4ccccn4)c(Cl)c3)c2cc1NC(=O)/C=C/CN(C)C [Neratinib] + CS(=O)(=O)N1CCN(Cc2cc3nc(-c4cccc5[nH]ncc45)nc(N4CCOCC4)c3s2)CC1 [Pictilisib] (partner 1 µM)
Procedure, shortened: as §1

| Cell Line | relative viability (Neratinib + Trametinib; first compound 0.01 µM) | relative viability (Neratinib + Trametinib; first compound 0.03162 µM) | relative viability (Neratinib + Trametinib; first compound 0.1 µM) | relative viability (Neratinib + Trametinib; first compound 0.3162 µM) | relative viability (Neratinib + Trametinib; first compound 1 µM) | relative viability (Neratinib + Olaparib; first compound 0.01 µM) | relative viability (Neratinib + Olaparib; first compound 0.03162 µM) | relative viability (Neratinib + Olaparib; first compound 0.1 µM) | relative viability (Neratinib + Olaparib; first compound 0.3162 µM) | relative viability (Neratinib + Olaparib; first compound 1 µM) | relative viability (Neratinib + Bortezomib; first compound 0.01 µM) | relative viability (Neratinib + Bortezomib; first compound 0.03162 µM) | relative viability (Neratinib + Bortezomib; first compound 0.1 µM) | relative viability (Neratinib + Bortezomib; first compound 0.3162 µM) | relative viability (Neratinib + Bortezomib; first compound 1 µM) | relative viability (Neratinib + Pictilisib; first compound 0.01 µM) | relative viability (Neratinib + Pictilisib; first compound 0.03162 µM) | relative viability (Neratinib + Pictilisib; first compound 0.1 µM) | relative viability (Neratinib + Pictilisib; first compound 0.3162 µM) | relative viability (Neratinib + Pictilisib; first compound 1 µM) |
| --- | --- | --- | --- | --- | --- | --- | --- | --- | --- | --- | --- | --- | --- | --- | --- | --- | --- | --- | --- | --- |
| NCI-H522 | 0.756 | 0.923 | 0.758 | 0.599 | 0.543 | 0.598 | 0.5 | 0.558 | 0.573 | 0.459 | – | – | – | – | – | – | – | – | – | – |
| NCI-H1299 | – | – | – | – | – | 0.954 | 0.983 | 0.85 | 0.99 | 0.974 | 1.03 | 1 | 0.965 | 1.03 | 1.1 | 0.729 | 0.901 | 0.805 | 0.459 | 0.28 |
| NCI-H1395 | 1.18 | 1.18 | 1.11 | 1.11 | 0.65 | – | 0.491 | 0.449 | 0.469 | 0.413 | – | – | – | – | – | 0.595 | 0.679 | 0.602 | 0.659 | 0.449 |
| NCI-H1563 | – | – | – | – | – | – | – | – | – | – | 0.812 | – | 0.685 | 0.752 | 0.647 | 0.608 | 0.636 | 0.664 | 0.617 | 0.602 |
| NCI-H1648 | 0.449 | 0.402 | 0.276 | 0.262 | 0.335 | 0.855 | 0.917 | 0.806 | 0.643 | 0.427 | – | – | – | – | – | – | – | – | – | – |
| NCI-H1703 | – | – | – | – | – | 0.536 | 0.486 | 0.402 | 0.218 | 0.162 | 0.335 | 0.345 | 0.394 | 0.233 | 0.18 | 0.23 | 0.224 | 0.244 | 0.201 | 0.212 |
| NCI-H1793 | 0.454 | 0.509 | 0.407 | 0.361 | 0.253 | 1 | 0.855 | 0.551 | 0.345 | 0.217 | – | – | – | – | – | 0.31 | 0.361 | 0.319 | 0.339 | 0.275 |
| NCI-H1944 | 0.434 | 0.396 | 0.364 | 0.311 | 0.286 | 0.45 | 0.406 | 0.229 | 0.352 | 0.319 | – | – | – | – | – | 0.387 | 0.341 | 0.193 | 0.31 | 0.266 |
| NCI-H2170 | 0.873 | 0.862 | 0.631 | 0.178 | 0.171 | 0.627 | 0.49 | 0.32 | 0.151 | 0.158 | – | – | – | – | – | 0.314 | 0.253 | 0.206 | 0.189 | 0.256 |
| NCI-H2342 | 0.772 | 0.772 | 0.71 | 0.667 | 0.543 | 0.397 | 0.416 | 0.385 | 0.331 | 0.298 | – | – | – | – | – | – | – | – | – | – |
| SK-MES-1 | 0.648 | 0.564 | 0.564 | 0.332 | – | 0.807 | 0.778 | 0.631 | 0.264 | 0.233 | – | – | – | – | – | 0.347 | 0.338 | 0.238 | 0.207 | 0.177 |
| SW 900 | 0.866 | 0.906 | 0.527 | 0.729 | 0.467 | 0.975 | 0.826 | 0.714 | 0.662 | 0.607 | – | – | – | – | – | – | – | – | – | – |
